Assay results reported in patent US20250281509A1, “SEQUENTIAL HORMONE THERAPY TO IMPROVE SURVIVAL AND ENHANCE RESPONSE TO IMMUNE THERAPY IN MEN WITH PROSTATE CANCER” (The Johns Hopkins University, priority 2021, published 2025).
Values joined by “and” are separate entries in the source; they are usually repeats but may differ in a detail not shown here. Equal entries are not always repeated. Where two headings read alike, the source gives them in different places.

Experiments:
[1] = system: AR-V; assay: AR-V expression in VCaP cells exposed to R1881 (FIG. 1B); format: cell-based, human; conditions: 48-hr exposure
Source text: FIG. 1A and FIG. 1B show (FIG. 1A) Effect of synthetic androgen R1881 or bicalutamide on growth of ADT-resistant LNCaP and VCAP; (FIG. 1B) expression of full-length AR (AR-FL), AR-variants (AR-Vs) using antibody to AR N-terminal domain and AR-V& using AR-V7 specific antibody in the absence or presence of R1881;
Thelen et al., 2013. These AR-V expressing cells are profoundly growth inhibited by high dose levels of androgens, FIG. 1A.

[2] = system: PARP cleavage; assay: PARP cleavage in prostate cancer cell lines; format: cell-based, human
Description: (§1) Cell lysates were prepared either in 1× denaturing lysis buffer (Cell Signaling #9803) or non-denaturing lysis buffer (50 mM HEPES pH 7.4, 150 mM NaCl, 5 mM EDTA, 10% glycerol, 1% Nonidet P-40, and supplemented with phosphatase and protease inhibitors). For denaturing gels, lysates were mixed with Laemmli buffer containing β-mercaptoethanol, boiled for 5 mins and stored at −80° C. until use. Native lysates were mixed with native loading buffer (BioRad), and semi-native lysates were mixed with Laemmli buffer without beta-mercaptoethanol and stored at −80° C. without boiling. Native gels were resolved as described previously, Robitaille et al., 2016; denaturing and semi-native gels were resolved on 4-15% precast polyacrylamide gels (BioRad) followed by transfer to PVDF membrane. Membranes were blocked in 5% nonfat milk in wash buffer (Tris-buffered saline+0.1% Tween-20). After blocking, immunoblotting was performed with primary antibodies overnight at 4° C., followed by incubation with HRP-conjugated secondary antibodies for 1 h at room temperature. Blots were analyzed using the chemiluminescence method. Blots were developed using ECL Western blot detection reagent (GE Healthcare) for highly expressed proteins and Super Signal West Femto (Thermo Fisher) reagent for low expression proteins. Each experiment was repeated at least two to three times.

[3] = system: LNCaP cells; assay: Annexin-V positivity; format: cell-based, human
[4] = system: autophagy; assay: Autophagy induction in PCa cell lines; format: cell-based, human
Description: as §1
Cells were plated on 60-mm dishes to obtain 80% confluence on the next day. Cells were transfected with tandem mRFP-GFP fluorescent-tagged LC3 (ptfLC3) (Addgene #21074). 24 h post-transfection, cells were trypsinized and plated on sterile glass-bottom dishes at a 40-50% confluency and treated with androgens. Autophagosomes are labelled as green and red dual positive punctas and autolysosomes appear as red puncta as the green puncta is pH sensitive and quenched by the acidic lysosomal pH. Cells were then imaged using a live cell Zeiss LSM780-FCS Single-point, laser scanning confocal microscope. Images were processed using the ImageJ software. Cells with predominantly yellow RFP/GFP (autophagosome) or red RFP (autolysosome) punctae were counted and analyzed from at least twenty fields. Each experiment had images from at least five random fields and repeated three times.

[5] = system: lipid peroxides; assay: Lipid peroxide sensor C11-BODIPY; format: cell-based, human; conditions: LNCaP cells, vs vehicle
[6] = system: labile iron pool (Fe2+); assay: Measurement of the labile iron pool; format: cell-based, human; conditions: LNCaP cells, vs vehicle
Description: An iron assay kit (Sigma) was used to measure the labile iron pool in control and R1881 treated cells. LNCaP and LAPC4 cells were culture in a 100-mm tissue culture dish and were treated for […] before lysis in the buffer provided with the kit by snap freezing and thawing method. The lysate was cleared by centrifuging at 13000×g, and iron was measured by iron detection reagents supplied in the kit. Iron levels were calculated and normalized by the total protein present in the cell lysate. Levels of Fe^2+ were analyzed in SupraT treated cells and were normalized to vehicle control cells.

[7] = system: cytoplasmic DNA; assay: Confocal microscopy of cytoplasmic DNA; format: cell-based, human; conditions: combination of hydroxychloroquine and R1881
Description: Cells were grown on sterile coverslips in low density and were treated with R1881 (T) or vehicle control (C). After treatment, media was removed, and cells were fixed and permeabilized using chilled methanol for 10 min in deep-freezer followed by 10 min fixation in 10% natural buffered formalin at room temperature. Post-fixation, cells were blocked overnight in sterile-filtered 5% BSA in PBS at 4° C. Cells were incubated with a primary antibody, followed by a suitable fluorochrome tagged secondary antibody at 4° C. overnight. Both primary and secondary antibodies were diluted with 5% BSA in PBS. Cells were postfixed with 10% NBF for 2-3 min before mounting on a clean glass slide using Vectashield antifade mounting media (Vector Laboratories). Image acquisition was performed on the LSM 700 laser confocal microscope (Zeiss). Experiment was repeated at least three times and images from at least five random fields from each experiment were used for analysis. Images were analyzed using the image processing package Fiji.

[8] = system: ferritin; assay: Ferritin level by western blot; format: cell-based, human; conditions: LNCaP cells, supraphysiological levels
Description: as §1

[9] = system: STING; assay: STING dimerization assay (native western blot); format: cell-based, human; conditions: LNCaP vs LAPC4 cells
Description: as §1

[10] = system: NIK, p52, RELB; assay: Immunoblotting for non-canonical NF-kappaB pathway; format: cell-based, human
Description: For denaturing gels, lysates were mixed with Laemmli buffer containing β-mercaptoethanol, boiled for 5 mins and stored at −80° C. until use. Native lysates were mixed with native loading buffer (BioRad), and semi-native lysates were mixed with Laemmli buffer without beta-mercaptoethanol and stored at −80° C. without boiling. […] Membranes were blocked in 5% nonfat milk in wash buffer (Tris-buffered saline+0.1% Tween-20). After blocking, immunoblotting was performed with primary antibodies overnight at 4° C., followed by incubation with HRP-conjugated secondary antibodies for 1 h at room temperature. Blots were analyzed using the chemiluminescence method. Blots were developed using ECL Western blot detection reagent (GE Healthcare) for highly expressed proteins and Super Signal West Femto (Thermo Fisher) reagent for low expression proteins. Each experiment was repeated at least two to three times.

[11] = system: CXCL10; assay: CXCL10 transcript and protein; format: cell-based, human; conditions: LNCaP vs LAPC4 cells
Description: Total RNA was extracted from cells using Trizol reagent (Thermo Fisher) as per manufacturer's instructions. cDNA was synthesized from RNA by reverse transcription using SuperScript IV reverse (Thermo Fisher). Quantitative PCR was performed on samples mixed with SYBR master mix (BioRad) and gene-specific primers using a real-time thermocycler (BioRad). Data analysis was performed using the ΔΔCt method, and fold change (2^^−ΔΔ^Ct) was calculated after double normalization with the housekeeper gene and respective untreated control. Each PCR reaction was run in triplicates.
Cell lysates were prepared either in 1× denaturing lysis buffer (Cell Signaling #9803) or non-denaturing lysis buffer (50 mM HEPES pH 7.4, 150 mM NaCl, 5 mM EDTA, 10% glycerol, 1% Nonidet P-40, and supplemented with phosphatase and protease inhibitors). For denaturing gels, lysates were mixed with Laemmli buffer containing β-mercaptoethanol, boiled for 5 mins and stored at −80° C. until use. […] Blots were analyzed using the chemiluminescence method. […]
The concentration of 17 chemokines, cytokines, and growth factors in culture supernatants of control or R1881 treated LNCaP cells was determined using the Bioplex Pro Human Cytokine 17-plex assay system (Bio-Rad) according to manufacturer's protocol. […] Data was collected on the Bio-Rad BioPlex 200 instrument and analyzed using the Bio-Plex Manager (Bio-Rad Laboratory).

[12] = system: LNCaP cells; conditions: androgen-deprived LNCaP cells, high-dose DHT
[13] = system: LAPC4 cells; conditions: androgen-deprived LAPC4 cells, high levels of DHT
[14] = system: CRPC; assay: Post hoc analysis of PSA response to subsequent hormonal therapies post-BAT (pilot study); format: in vivo, human
Description: As part of the aforementioned pilot study, a post hoc exploratory analysis on the effect of BAT on subsequent hormonal therapies was performed. […] All of the patients had received at least one anti-androgen prior to starting the study, Table 2. PSA response to secondary hormonal therapy after return to castrate T-levels post-BAT.

[15] = system: CRPC; assay: RESTORE Phase II study (NCT02090114); format: in vivo, human; conditions: re-challenge with the agent patients progressed on before BAT
Source text: The RESTORE study (NCT02090114) was an NIH sponsored Phase II study designed to assess the safety and efficacy of BAT in men (n=30 per cohort) with CRPC progressing on enzalutamide (Cohort A) or abiraterone (Cohort B), FIG. 6A. Shah et al., 2004. The primary endpoint of the first part of the study was to assess PSA response to BAT. Secondary endpoints included objective response, safety, and quality of life. The second part of the study was to determine in BAT could re-sensitize patients to repeat exposure to second line therapy that patients were progressing on prior to receiving BAT. Thus, patients progressing on enzalutamide were re-exposed to enzalutamide after BAT and similarly for abiraterone. Both arms of this study met the primary endpoint. PSA50 Response to BAT was 30% in patient's post-enzalutamide and 18% post-abiraterone, FIG. 6B. Shah et al., 2004. […] Overall duration of response to BAT and duration of response to re-exposure was longer in the post-enzalutamide vs. post-abiraterone cohort. The PSA50 response to re-exposure to enzalutamide was 71% vs. only 21% for patients re-exposed to abiraterone, FIG. 6B. Shah et al., 2004. A third cohort was later added (Cohort C) for men progressing on ADT alone. Overall, 90 men were treated on this study over a 4-year period (2014-2018).

[16] = system: CRPC progressing on abiraterone; assay: TRANSFORMER randomized Phase II study (NCT02286921); format: in vivo, human; conditions: for PSA50 response: patients crossing from BAT to enzalutamide
Description: The TRANSFORMER study (NCT02286921) was a DOD-sponsored randomized Phase II study designed to compare the efficacy of BAT vs. enzalutamide in asymptomatic men with CRPC progressing on abiraterone, FIG. 7A. The study was conducted at 17 academic centers across the U.S. The study was coordinated by the Prostate Cancer Disease Group clinical research team at Johns Hopkins, who performed regulatory oversight, study/site monitoring, and data analyses. From 2015-2018, 195 patients underwent 1:1 randomization to either standard dose enzalutamide (n=101) or BAT (n=94) at 400 mg IM every 28 days. The primary endpoint was clinical/radiographic PFS. At time of progression, patients were given the option to crossover to the alternate therapy. The trial was designed to show a 50% improvement in the primary endpoint for BAT vs. enzalutamide. […] Objective response was 24.4% for BAT and 4.2% for enzalutamide (p=0.067). Best PSA50 was 26.4% for BAT and 25.5% for enzalutamide (p=0.697).
At time of progression, 46 (49%) of patients on the […] crossed over to receive BAT and 34 (33.7%) crossed over from BAT to receive enzalutamide and were available for analysis.

[17] = system: CRPC; conditions: cited from earlier work
[18] = system: CRPC; conditions: enzalutamide post-abiraterone, pre-chemotherapy setting; cited from earlier work
[19] = system: metastatic castration-resistant prostate cancer; conditions: cited from earlier work
[20] = system: CRPC; conditions: post-docetaxel setting; cited from earlier work
[21] = initial randomized arms, post-abiraterone
[22] = Enzalutamide Phase III (PREVAIL)

C[C@]1(O)CC[C@H]2[C@@H]3CCC4=CC(=O)CCC4=C3C=C[C@@]21C [R1881, 17α-methyl-19-nor-δ9,11-testosterone]
AR-V expression [1]: Complete loss of AR-V expression
PARP cleavage [2]: none of the prostate cancer cell lines treated with synthetic androgen R1881 had any substantial enhancement of PARP cleavage
Annexin-V positivity [3]: no significant increase in Annexin-V
basal autophagy ([4]; LAPC4 and 22Rv1 cells): remained largely unaffected
autophagy ([4]; LNCaP and VCaP cells): notably induces autophagy
lipid peroxides [5]: increased
labile iron pool [6]: increased
cytoplasmic DNA ([7]; LAPC4 cells): did not show any cytoplasmic DNA
cytoplasmic DNA ([7]; LNCaP cells): marked localization of cytoplasmic DNA
cytoplasmic DNA ([7]; VCaP cells): fewer cytoplasmic DNA puncta

C[C@]12CCC(=O)C[C@@H]1CC[C@@H]1[C@@H]2CC[C@]2(C)[C@@H](O)CC[C@@H]12 [DHT, dihydrotestosterone]
autophagy ([4]; LAPC4 cells): but not in LAPC4 cells
autophagy ([4]; LNCaP cells): robustly increased autophagy
ferritin levels [8]: decreased ferritin levels
STING and MAVS activation [9]: activated STING and MAVS preferentially in LNCaP cells, however, the activation was not as robust as R1881
RelB and NIK stabilization [10]: led to stabilization of RelB and NIK
CXCL10 induction [11]: able to induce CXCL10 (less robustly than R1881) preferentially in LNCaP cells
double strand break formation (γH2A.x foci) [12]: numerous γH2A.x foci
double strand breaks (γH2A.x foci) [13]: numerous double strand breaks throughout the nucleus

CNC(=O)c1ccc(N2C(=S)N(c3ccc(C#N)c(C(F)(F)F)c3)C(=O)C2(C)C)cc1F [enzalutamide]
patients with a PSA decline on second line therapy ([14]; after return to castrate testosterone levels post-BAT): 4/4
Maximum PSA decline upon secondary HT initiation (%) ([14]; per subject, secondary HT received post-study after return to castrate T-levels post-BAT): −30.4% and −99.5% and −78.3% and −53.2%
patients with >50% PSA decline on second line therapy ([14]; post-BAT): 3/4
PSA decline upon re-challenge ([14]; subjects who had previously progressed on the same agent): 53.2%
PSA50 response to re-exposure post-BAT [15]: 71%
Objective response ([16]; enzalutamide post-BAT patients): 28.6%
Time to PSA progression ([16]; immediately post-abiraterone): 3.8 months
increase in time to PSA progression, post-BAT vs post-abiraterone ([16]; in vivo): ~3 fold
overall survival ([16]; in vivo): 28 months
Best PSA50 [16, 21]: 25.5%
Objective response [16, 21]: 4.2%
Best PSA50 ([16]; initial randomized arms, post-abiraterone, listed as Enza): 25%
clinical/radiographic PFS ([16]; initial randomized arms, p=0.2267): 5.72 m
PSA50 response [16]: 72.7%
PSA50 response ([16]; listed as Enza): 78%
Time to PSA progression ([16]; post-BAT): 10.9 months
Time to PSA progression ([16]; post-BAT, listed as Enza): 11 months
>50% decline PSA (%) [17, 22]: 78%
Objective Response (%) [17, 22]: 59%
PSA PFS [17, 22]: 11.2
TTP (m) [17, 22]: 20 m
hazard ratio, overall survival ([17]; enzalutamide vs placebo, 95% CI 0.60 to 0.84): 0.71
median overall survival ([17]; pre-chemotherapy setting, placebo 30.2 months): 32.4 months
median rPFS [18]: ≤ 6 months
PFS (median), clinical/radiographic ([19]; AR-V7-negative patients): 6.1 months
PSA response rate ([19]; AR-V7-negative patients): 52.6%
PSA-PFS (median) ([19]; AR-V7-negative patients): 5.9 months
PFS (median), clinical/radiographic ([19]; AR-V7-positive patients): 2.1 months
PSA response rate ([19]; AR-V7-positive patients): 0%
PSA-PFS (median) ([19]; AR-V7-positive patients): 1.4 months
improvement in survival [20]: approximately 5 months
